Experimental data: article PMC6220303 (EMBO Molecular Medicine, 2018)

How the values were obtained:
rat = system: rat; parameters: method as in May et al, 2011; Fielden et al, 2015; details: ref May et al, 2011; Fielden et al, 2015; cited from earlier work
CatD = system: CatD; parameters: method as in Fielden et al, 2015; details: ref Fielden et al, 2015; cited from earlier work
APP‐transgenic mice = system: APP‐transgenic mice; parameters: method as in Beckmann et al, 2016; Villarreal et al, 2017; details: ref Beckmann et al, 2016; Villarreal et al, 2017; cited from earlier work
C57/BL6 mice = assay: Hair depigmentation study, 8 weeks dosing; format: in vivo, mouse; details: for % Aβ40 in brain relative to vehicle alone: steady state
Method: Compounds were either mixed in feed or given as a suspension orally. […] Vehicle or compounds were given orally in a volume of 10 ml/kg once daily (mornings) for 8 weeks. Vehicle: 0.1% Tween‐80 in 0.5% methylcellulose in water. […] The vehicle group was treated with food pellets containing no compound. The β1 antibody was dosed 0.5 mg/kg body weight, once weekly intraperitoneally, diluted in 90 nM NaCl, 50 nM Tris pH 7.1.

C[C@@]1(c2cc(-c3cncnc3)c(F)cc2F)CCSC(N)=N1 [LY2811376]
retinal pathology in the rat (rat): retinal degeneration

CC1(C#Cc2cnc3c(c2)[C@]2(COC(N)=N2)c2cc(-c4cccnc4F)ccc2O3)COC1 [AMG‐8718]
retinal pathology in the rat (rat): retinal degeneration
CatD selectivity in vitro (CatD): > 3,000 fold

CN1C(=N)N[C@](C)(c2cc(NC(=O)c3ccc(F)cn3)ccc2F)CS1(=O)=O [verubecestat]
CMH events (APP‐transgenic mice): No CMH events were observed

Cc1cc(C#N)cnc1C(=O)Nc1ccc(F)c([C@]2(C)CO[C@@](C)(C(F)(F)F)C(N)=N2)c1 [NB‐360]
start of hair depigmentation (C57/BL6 mice; C57/BL6 mice): 2–3 weeks
% Aβ40 in brain relative to vehicle alone (C57/BL6 mice; Dose 9 mg/kg): 66%
% Aβ40 in brain relative to vehicle alone (C57/BL6 mice; Dose 45 mg/kg): 32%
hair depigmentation / change in hair color (C57/BL6 mice; male C57/BL6 mice, 8 weeks oral once daily): obvious hair depigmentation in all mice
CMH events (APP‐transgenic mice): No CMH events were observed
